Converted amounts (≈) assume the structure as drawn.
What was measured:
[1] = test system: C. freundii overproducing chromosomally-mediated class C β-lactamase; experiment: MIC of third-generation cephalosporins alone and with compounds 4 or 9 (Table 3); format: cell-based, Citrobacter freundii; conditions: antibiotic alone
Text: (§1) Antimicrobial activity was investigated quantitatively to determine the minimum inhibitory concentrations (MICs) of the β-lactam/inhibitor combination necessary to inhibit the bacterial growth (Table 3). The MICs of β-lactams alone against the strains corresponded to a high level of resistance according to Clinical and Laboratory Standards Institute (CLSI) standards. (Clinical and Laboratory Standards Institute, Performance standards for antimicrobial susceptibility testing, 20th Informational Supplement, M100-S20 2010) The compounds had no measurable antibiotic activity when used alone.
(§2) Susceptibility testing was performed and interpreted following the guidelines of CLSI. (Clinical and Laboratory Standards Institute, Performance standards for antimicrobial susceptibility testing, 20th Informational Supplement, M100-S20 2010) The compounds were dissolved in 50% DMSO, and dilutions were performed using Muller-Hinton medium. An adequate final concentration was obtained to determine the minimum inhibitory concentrations (MICs). The concentration of DMSO was maintained below 5%. The inhibitors were tested for synergy with the third-generation β-lactams ceftazidime and cefotaxime against several clinical bacteria. […] Each value reported reflects the average of three independent experiments. […] A Klebsiella pneumoniae isolate produced the inducible plasmid-mediated class C enzyme DHA-1. The Friedman's test and the Wilcoxon signed rank test were used to compare MIC values. Statistical significance was established at p<0.05.

[2] = test system: P. aeruginosa overproducing chromosomally-mediated class C β-lactamase; experiment: as above; format: cell-based, Pseudomonas aeruginosa; conditions: antibiotic alone
Text: as §1, §2

[3] = test system: K. pneumoniae producing the plasmid-mediated class C β-lactamase DHA-1; experiment: as above; format: cell-based, Klebsiella pneumoniae; conditions: antibiotic alone
Text: as §1, §2

[4] = test system: E. cloacae 135, AmpC-overproducing; experiment: MIC of third-generation cephalosporins alone and with compounds (Table 6); format: cell-based, Enterobacter cloacae; conditions: antibiotic alone
Protocol: (§3) The anti-resistance activity of inhibitors was investigated by the determination of the minimum inhibitory concentrations (MICs) of the β-lactam/inhibitor combination necessary to inhibit the growth of clinically-isolated bacteria resistant to third-generation cephalosporins via expression of class A or class C β-lactamases (Table 6).
(§4) Susceptibility testing was performed and interpreted following the guidelines of CLSI. (Clinical and Laboratory Standards Institute, Performance standards for antimicrobial susceptibility testing, 20th Informational Supplement, M100-S20 2010) The compounds were dissolved in 50% DMSO, and dilutions were performed using Muller-Hinton medium. An adequate final concentration was obtained to determine the minimum inhibitory concentrations (MICs). The concentration of DMSO was maintained below 5%. The inhibitors were tested for synergy with the third-generation β-lactams ceftazidime and cefotaxime against several clinical bacteria. The ratio of β-lactams to inhibitors was 1:4. Each value reported reflects the average of three independent experiments. […] The Friedman's test and the Wilcoxon signed rank test were used to compare MIC values. Statistical significance was established at p<0.05.
(§5) Table 6. MICs (μg/ml) of third-generation cephalosporins alone and in association with the compounds (ratio 1/4) for clinical bacteria. CTX, cefotaxime and CAZ, ceftazidime. ^1, AmpC-overproducing bacteria; ^2, CTX-M-14-producing E. coli; ^3, KPC-2-producing K. pneumoniae; ^4, OXA-48-producing K. pneumoniae; ^5, NDM-1-producing C. freundii.

[5] = test system: E. cloacae, AmpC-overproducing; experiment: as above; format: cell-based, Enterobacter cloacae; conditions: antibiotic alone
Protocol: as §3, §4, §5

[6] = test system: AmpC-overproducing Escherichia coli strain 4; experiment: Mouse model of bacteremia and sepsis, survival; format: in vivo, OF1 mice; conditions: 120 h post infection; ip at 0.5, 3.5, 6.5 h; imipenem 50 mg/kg, cefotaxime 50 mg/kg, cefotaxime:CR161 50:200 mg/kg
Protocol: FIG. 17. Percentage of survival of mice infected with AmpC-overproducing Escherichia coli over the course of 5 days (120 h). Mice were inoculated by intraperitoneal injection with AmpC-overproducing Escherichia coli strain 4 (1±0.5 10^9 colony-forming units) and treated at 0.5, 3.5, 6.5 h after infection by intraperitoneal injection of 50 mg/kg imipenem (□, n=20), 50:200 mg/kg cefotaxime:CR161 combination (▪, n=17), 50 mg/kg cefotaxime (●, n=20) or sterile isotonic saline (◯, n=20).
Efficacy in a mouse model of infection. We had not observed such substantial reversal of bacterial resistance to β-lactams, across such a broad spectrum of clinical isolates, for previous series of boronic acid inhibitors of β-lactamase; indeed, this lack of efficacy had motivated this study. These new cell-culture MIC values inspired us to investigate the efficacy of one of these compounds in a mouse model of bacteremia and sepsis. […] Mice were treated with cefotaxime alone, cefotaxime combined with compound CR161, with sterile isotonic saline, and with imipenem as a reference treatment of systemic infections by cephalosporin-resistant enterobacteriaceae (FIG. 17); 20 mice were used in each clade. […]
OF1 mice 4-5 weeks of age and weighing 20-25 g were used in this study. […] The survival of mice in each group was monitored every 6 h for 5 days after infection. […]

[7] = test system: hospital-derived strain of E. coli that overproduces AmpC; experiment: MIC for the strain used in the mouse model; format: cell-based; conditions: Escherichia coli

`CO/N=C(\C(=O)N[C@@H]1C(=O)N2C(C(=O)O)=C(COC(C)=O)CS[C@H]12)c1csc(N)n1` [Cefotaxime] was tested, and the “MIC, cephalosporin alone” value [1] was 16 µg/mL, the “MIC, cephalosporin alone” value [2] was over 128 µg/mL and the “MIC, cephalosporin alone” value [3] was 8 µg/mL. For the same compound, the “MIC, cephalosporin alone” value [4] was 128 µg/mL, the “MIC, cephalosporin alone” value [5] was 64 µg/mL and the survival [6] was 15%. It also gave an MIC [7] of 32 µg/mL (≈ 70.3 µM).

— patent US9371337B2, “β-lactamase inhibitors” (The Regents of the University of California, priority 2011, dated 2016)
